Earlier results on one molecule are cited in patent CN116041271A, “一种氟苯尼考中间体的制备方法” (Shandong Weiyan Biotechnology Co ltd, priority 2022, dated 2023).

Each structure is given as a SMILES string.

For series [1] the following is noted: administered in feed.
The conditions of series [2]: in words.
In series [3] the test system is Fusobacterium (梭杆菌). Particulars: in words; cattle.
For series [4] the following is noted: in words. The source holds these as a separate data set.

For `CS(=O)(=O)c1ccc([C@@H](O)[C@@H](CF)NC(=O)C(Cl)Cl)cc1` [氟苯尼考], the “time after administration to peak drug concentration in tissue” value in series [1] is listed as 60 min. The control of disease entry in series [2] is “能迅速控制病情”. In addition, the “therapeutic effect on bovine foot rot caused by Fusobacterium” value in series [3] is reported as “有较好疗效”. In series [4], the “potential risk of causing aplastic anemia” value is listed as “无潜在致再生障碍性贫血的隐患”, the residue result is on record as “无残留”, the safety entry is given as “安全性高” and the toxicity entry is “无毒”. Also, the “antibacterial effect relative to chloramphenicol and thiamphenicol” value (compared with chloramphenicol, thiamphenicol) was 15-20 times. Under “in words”, the antibacterial spectrum result was “广”, the bacteriostatic action entry is “强” and the “minimum inhibitory concentration (MIC)” value was “低”.
